Patent publication US9125414B2, “Pyridine derivatives compounds for controlling invertebrate pests” (BASF SE, priority 2009, dated 2015)

Columns and labels:
Type in all cases: in vivo
[1] = tested on: Green Peach Aphid (Myzus persicae); assay: Green peach aphid through systemic means, artificial diet under membrane; settings: 72 h, pipetted into aphid diet, 3 days, read-out: mortality in comparison with untreated controls
Source text: II.6 Activity Against Green Peach Aphid (Myzus persicae)
For evaluating control of green peach aphid (Myzus persicae) through systemic means the test unit consisted of 96-well-microtiter plates containing liquid artificial diet under an artificial membrane.
The compounds were formulated using a solution containing 75% v/v water and 25% v/v DMSO. Different concentrations of formulated compounds were pipetted into the aphid diet, using a custom built pipetter, at two replications. After application, 5 to 8 adult aphids were placed on the artificial membrane inside the microtiter plate wells. The aphids were then allowed to suck on the treated aphid diet and incubated at about 23+1° C. and about 50+5% relative humidity for 3 days. Aphid mortality and fecundity was then visually assessed.

[2] = tested on: Green Peach Aphid (Myzus persicae, mixed life stages); assay: Green peach aphid, method a (leaf dip, pepper plants); settings: foliar, 120 h, leaves dipped, after 5 days, read-out: mortality in comparison with untreated controls
Source text: II.2 Green Peach Aphid (Myzus persicae, Mixed Life Stages)
The active compounds were formulated in 50:50 (vol:vol) acetone:water and 100 ppm Kinetica™ (from Helena Chemical Co.) surfactant.
Pepper plants in the 2nd leaf-pair stage (variety ‘California Wonder’) were infested with approximately 40 laboratory-reared aphids by placing infested leaf sections on top of the test plants. The leaf sections were removed after 24 hr. The leaves of the intact plants were dipped into gradient solutions of the test compound and allowed to dry. Test plants were maintained under fluorescent light (24 hour photoperiod) at about 25° C. and 20-40% relative humidity. Aphid mortality on the treated plants, relative to mortality on check plants, was determined after 5 days.

[3] = tested on: Cowpea Aphid (Aphis craccivora); assay: Cowpea aphid, sprayed potted cowpea plants; settings: population reduction assessed after 24, 72 and 120 hours, read-out: mortality in comparison with untreated controls
Protocol: II.3 Cowpea Aphid (Aphis craccivora)
The active compounds were formulated in 50:50 (vol:vol) acetone:water. The test solution was prepared at the day of use.
Potted cowpea plants colonized with 100-150 aphids of various stages were sprayed after the pest population had been recorded. Population reduction was assessed after 24, 72, and 120 hours.

[4] = tested on: Vetch Aphid (Megoura viciae); assay: Vetch aphid, bean leaf disks in microtiterplates; settings: foliar, 144 h, test solution 2500 mg/L, leaf disks sprayed, 6 days
Protocol: II.4 Vetch Aphid (Megoura viciae)
The active compounds were formulated in 1:3 (vol:vol) DMSO:water with different concentrations of formulated compounds.
Bean leaf disks were placed into microtiterplates filled with […] and 2.5 ppm OPUS™ (from BASF SE, conazole). The leaf disks were sprayed with 2.5 μl of the test solution and 5 to 8 adult aphids were placed into the microtiterplates which were then closed and kept at 23±1° C. and 50±5% relative humidity under fluorescent light for 6 days. Mortality was assessed on the basis of vital, reproduced aphids. Aphid mortality and fecundity was then visually assessed.

[5] = tested on: Cotton Aphid (Aphis gossypii, mixed life stages); assay: Cotton aphid, method a (cotyledon dip); settings: 120 h, cotyledons dipped, counts after 5 days, read-out: mortality in comparison with untreated controls
Source text: II.1 Cotton Aphid (Aphis gossypii, Mixed Life Stages)
The active compounds were formulated in 50:50 (vol:vol) acetone: water and 100 ppm Kinetica™ (from Helena Chemical Co.) surfactant.
Cotton plants at the cotyledon stage (one plant per pot) were infested by placing a heavily infested leaf from the main colony on top of each cotyledon. The aphids were allowed to transfer to the host plant overnight, and the leaf used to transfer the aphids was removed. The cotyledons were dipped in the test solution and allowed to dry. After 5 days, mortality counts were made.

Compound O=C(Nc1cccnc1)c1conc1C1CC1 [Example 15, 3-Cyclopropyl-isoxazole-4-carboxylic acid pyridin-3-ylamide] has a mortality at 2500 ppm [1] of 100%, a mortality at 300 ppm [2] of at least 90% and a mortality at 300 ppm [3] of at least 90%. It also gave a mortality at 2500 µg/mL [4] of at least 90% and a mortality at 300 ppm [5] of at least 90%.
